# Data from article PMC9323974, “Palladium(II) Complexes of Substituted Salicylaldehydes: Synthesis, Characterization and Investigation of Their Biological Profile” (Pharmaceuticals, 2022).
# “And” between values parts separate entries of the source, which are not always exact repeats. Identical values can stand only once. Like-named read-outs stand apart in the source and are kept apart here.
# Tests used:
# DPPH radical scavenging = settings: compound 0.1 mM
# Procedure: (§1) S1 Antioxidant biological assay
# The antioxidant activity of the compounds was evaluated via their ability to scavenge in
# vitro free radicals such as DPPH and ABTS and to reduce H2O2. All the experiments were carried
# S1.1 Determination of the reducing activity of the stable radical DPPH
# To an ethanolic solution of DPPH (0.1 mM) an equal volume solution of the compounds
# (0.1 mM) in ethanol was added. Absolute ethanol was also used as control solution. The absorbance
# at 517 nm was recorded at room temperature after 30 and 60 min, in order to examine the possible
# existence of a potential time–dependence of the DPPH radical scavenging activity [S1]. The DPPH–
# scavenging activity of the compounds was expressed as the percentage reduction of the absorbance
# values of the initial DPPH solution (DPPH%). NDGA and BHT were used as reference compounds. […]
# [1] = ABTS radical cation scavenging; settings: compound 0.1 mM
# Procedure: as §1
# The antioxidant activity of the compounds was evaluated via their ability to scavenge in […]
# vitro free radicals such as DPPH and ABTS and to reduce H2O2. […]
# S1.2 Assay of radical cation ABTS–scavenging activity
# The ABTS assay was performed to determine the activity of the compounds to scavenge the […]
# radical cation ABTS. Initially, a water solution of ABTS was prepared (2 mM). ABTS radical cation […]
# (ABTS+·) was produced by the reaction of ABTS stock solution with potassium persulfate (0.17 […]
# mM) and the mixture was stored in the dark at room temperature for 12–16 h before its use. The […]
# ABTS was oxidized incompletely because the stoichiometric reaction ratio of ABTS and potassium […]
# persulfate is 1:0.5. The absorbance became maximal and stable only after more than 6 h of reaction […]
# although the oxidation of the ABTS started immediately. The radical was stable in this form for […]
# more than 2 days when allowed to stand in the dark at room temperature. Afterwards, the ABTS+· […]
# solution was diluted in ethanol to an absorbance of 0.70 at 734 nm and 10 μL of diluted compounds or standards (0.1 mM) in DMSO were added. The absorbance was recorded out exactly 1 min after […]
# initial mixing [S1]. The ABTS radical scavenging activity was expressed as the percentage inhibition of the absorbance of the initial ABTS solution (ABTS%). […]
# [2] = tested on: Bacillus subtilis ATCC 6633; test: MIC determination; assay type: cell-based; settings: for MIC: read-out: MIC B. subtilis
# Procedure: (§2) S2 Antibacterial activity
# (§3) The antimicrobial activity of the compounds was evaluated by determining their respective MIC values towards two Gram–(–) (Escherichia coli NCTC 29212 (E. coli) and Xanthomonas campestris ATCC 1395 (X. campestris)) and two Gram–(+) (Staphylococcus aureus ATCC 6538 (S. aureus) and Bacillus subtilis ATCC 6633 (B. subtilis)) bacterial species. Cultures of these microbial strains were grown on a rich selective agar medium and stored at 4°C. The selective media used were Nutrient Agar or Broth for B. subtilis and S. aureus, Yeast Mold Agar or Broth for X. campestris and Luria Agar or Broth for E. coli. Cells picked from the surface of the stored cultures were used to initiate liquid pre–cultures of the same selective medium at an initial turbidity of roughly 1 McFarland unit. Pre–cultures were incubated for 24 h in a rotary shaking incubator and subsequently they were used to inoculate the test cultures used for the determination of MIC at an initial turbidity of 0.5 McFarland units. The test cultures consisted of Mueller –Hinton broth (Deben Diagnostics Ltd) containing different concentrations of the compounds.
# (§4) Different concentrations were achieved as follows: the compounds were freshly dissolved in DMSO to a concentration of 1 mg mL–1 and they were diluted with DMSO, using the method of progressive double dilution. Therefore, working solutions with decreasing concentrations of the compounds under investigation were achieved. The working solutions were subsequently diluted to the final desired concentration by addition to the growth medium at a proportion of 2:98. MIC values were determined as the lowest concentrations of the tested compounds that inhibited visible growth of each respective organism after a 24 h incubation [ S3]. Bacterial growth was determined by measuring the turbidity of appropriately diluted cultures at 600 nm with reference to equally diluted sterile growth medium and the inhibition achieved was calculated by comparing the turbidity of each culture to the average of the turbidity of three non–inhibited cultures. All test cultures were grown in triplicates and for the determination of MIC, growth had to be inhibited in at least two cultures of the triplicate. Incubation temperature at all stages was 37°C except for X. campestris that was cultivated at 28°C [S4].
# [3] = tested on: Escherichia coli NCTC 29212; test: MIC determination; assay type: cell-based; settings: for MIC: read-out: MIC E. coli
# Procedure: as §2, §3, §4
# [4] = tested on: Staphylococcus aureus ATCC 6538; test: MIC determination; assay type: cell-based; settings: for MIC: read-out: MIC S. aureus
# Procedure: as §2, §3, §4
# [5] = tested on: Xanthomonas campestris ATCC 1395; test: MIC determination; assay type: cell-based; settings: for MIC X. campestris: 24 h; for MIC: Xanthomonas campestris, ATCC1395, 24 h, read-out: MIC X. campestris
# Procedure: as §2, §3, §4
# BSA = biological target: T1, BSA (Bos taurus, UniProt P02769); test: Competitive BSA-fluorescence studies with warfarin and ibuprofen; assay type: binding, bovine; settings: for BSA drug site preference: drug site I (warfarin) vs II (ibuprofen)
# T1 construct: purchased Sigma-Aldrich Co
# Procedure: where n = the number of binding sites per albumin and K = the SA–binding constant. The K constant (M−1) is calculated from the slope in plots (ΔI/I0)/[Q] versus (ΔI/I0) and n is given by the ratio of y intercept to the slope [S9].
# S4.2 Competitive SA–fluorescence studies with warfarin and ibuprofen
# The competitive studies with warfarin or ibuprofen (site probes) [S10] were performed by tryptophan fluorescence quenching experiments using a fixed concentration of the BSA and site probes (3 μM) in buffer (containing 15 mM trisodium citrate and 150 mM NaCl at pH 7.0). The fluorescence emission spectra were recorded in the presence of increasing amounts of the compounds as quenchers with an excitation wavelength of 295 nm. The Scatchard equation (eq. 7) [S6] and plots were applied on the corrected SA–fluorescence emission spectra in order to determine the BSA–binding constant of the compounds in the presence of warfarin or ibuprofen.
# [6] = tested on: S. aureus, B. subtilis, E. coli, X. campestris; test: MIC stated for all tested bacterial strains; assay type: cell-based; settings: all tested microbes
# Procedure: as §2, §3, §4
# [7] = Bacillus subtilis, ATCC6633, 24 h
# [8] = Escherichia coli, NCTC29212, 24 h
# [9] = Staphylococcus aureus, ATCC6538, 24 h
# [10] = read-out: BSA-binding constant K, Marker: Ibuprofen, ibuprofen 3 μM
# [11] = read-out: BSA-binding constant K, Marker: Warfarin, warfarin 3 μM
# T1 sequence (P02769 25-607): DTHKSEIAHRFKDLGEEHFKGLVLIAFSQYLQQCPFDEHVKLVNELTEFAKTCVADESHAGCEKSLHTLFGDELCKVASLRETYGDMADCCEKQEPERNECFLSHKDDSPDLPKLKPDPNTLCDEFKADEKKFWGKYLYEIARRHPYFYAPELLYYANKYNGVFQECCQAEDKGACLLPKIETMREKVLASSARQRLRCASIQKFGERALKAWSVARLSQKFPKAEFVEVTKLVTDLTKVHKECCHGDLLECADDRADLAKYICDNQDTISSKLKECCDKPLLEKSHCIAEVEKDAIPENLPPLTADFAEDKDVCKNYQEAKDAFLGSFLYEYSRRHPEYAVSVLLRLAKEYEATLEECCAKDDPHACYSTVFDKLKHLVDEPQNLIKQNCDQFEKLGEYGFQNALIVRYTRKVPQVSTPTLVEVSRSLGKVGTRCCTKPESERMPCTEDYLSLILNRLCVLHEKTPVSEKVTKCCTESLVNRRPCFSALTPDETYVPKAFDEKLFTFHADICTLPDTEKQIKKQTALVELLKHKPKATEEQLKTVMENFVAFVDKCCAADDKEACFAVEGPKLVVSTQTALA
SMILES,DPPH% (30 min) (DPPH radical scavenging),DPPH% (60 min) (DPPH radical scavenging),ABTS% [1],MIC B. subtilis ([2]; 24 h),"MIC ([2]; 24 h, value in parentheses)",MIC E. coli ([3]; 24 h),"MIC ([3]; 24 h, value in parentheses)",MIC S. aureus ([4]; 24 h),"MIC ([4]; 24 h, value in parentheses)",MIC X. campestris [5],MIC X. campestris ([5]; value in parentheses),"BSA-binding constant K, Marker: Ibuprofen (BSA; ibuprofen 3 μM)","BSA-binding constant K, No Marker (BSA)","BSA-binding constant K, Marker: Warfarin (BSA; warfarin 3 μM)",also measured
"CCN(CC)c1ccc(C=O)c([O][Pd][O]c2cc(N(CC)CC)ccc2C=O)c1 [Complex 1, [Pd(4-Et2N-salo)2]]",2.45 ± 0.09%,4.00 ± 0.53%,97.05 ± 0.48%,100 µg/mL,204 µM,100 µg/mL,204 µM,100 µg/mL,204 µM,200 µg/mL,407 µM,8.94 (±0.63) × 10^4 M^−1,1.08 (±0.06) × 10^5 M^−1,9.34 (±0.60) × 10^4 M^−1,
"O=Cc1cc(Cl)cc(Cl)c1[O-].O=Cc1cc(Cl)cc(Cl)c1[O-].[Pd+2] [Complex 3, [Pd(3,5-diCl-salo)2]]",4.60 ± 0.20%,2.91 ± 0.11%,63.45 ± 0.38%,50 µg/mL,103 µM,25 µg/mL,51 µM,25 µg/mL,51 µM,25 µg/mL,51 µM,2.89 (±0.10) × 10^5 M^−1,7.82 (±0.24) × 10^5 M^−1,3.26 (±0.34) × 10^5 M^−1,
"COc1ccc(C=O)c([O-])c1.COc1ccc(C=O)c([O-])c1.[Pd+2] [Complex 5, [Pd(4-OMe-salo)2]]",2.29 ± 0.36%,3.00 ± 0.25%,96.66 ± 0.46%,100 µg/mL,245 µM,100 µg/mL,245 µM,100 µg/mL,245 µM,100 µg/mL,245 µM,6.52 (±0.46) × 10^4 M^−1,9.18 (±0.27) × 10^5 M^−1,1.46 (±0.14) × 10^5 M^−1,BSA drug site preference (BSA): drug site II
"CCN(CC)c1ccc(C=O)c(O)c1 [4-Et2N-saloH, 4-diethylamino-salicylaldehyde, reference compound]",2.47 ± 0.09%,3.20 ± 0.08%,25.84 ± 0.34%,,,,,,,,,,,,"MIC [2, 7]: > 200 µg/mL and > 1040 µM; MIC [3, 8]: > 200 µg/mL and > 1040 µM; MIC [4, 9]: > 200 µg/mL and > 1040 µM; MIC [5]: > 200 µg/mL and > 1040 µM; MIC ([6]; read-out: MIC): > 200 µg/mL; Kd (BSA): 2.4 µM; Kd (BSA; [10]): 20.6 µM; Kd (BSA; [11]): 7.52 µM"
"O=Cc1cc(Br)cc(Br)c1[O][Pd][O]c1c(Br)cc(Br)cc1C=O [Complex 2, [Pd(3,5-diBr-salo)2]]",7.99 ± 0.24%,14.63 ± 0.53%,50.46 ± 0.91%,25 µg/mL,38 µM,25 µg/mL,38 µM,25 µg/mL,38 µM,25 µg/mL,38 µM,1.05 (±0.09) × 10^5 M^−1,1.50 (±0.06) × 10^6 M^−1,9.64 (±0.70) × 10^4 M^−1,MIC [6]: 25 μg/mL and 38 μM
"O=Cc1cc(F)ccc1O [5-F-saloH, 5-fluoro-salicylaldehyde, reference compound]",3.96 ± 1.16%,5.56 ± 1.06%,19.57 ± 0.58%,,,,,,,,,,,,"MIC [2, 7]: 200 µg/mL and 1430 µM; MIC [3, 8]: 200 µg/mL and 1430 µM; MIC [4, 9]: 200 µg/mL and 1430 µM; MIC [5]: 200 µg/mL and 1430 µM; Kd (BSA): 23.2 µM; Kd (BSA; [10]): 21.7 µM; Kd (BSA; [11]): 33.1 µM"
"O=Cc1cc(F)ccc1[O-].O=Cc1cc(F)ccc1[O-].[Pd+2] [Complex 4, [Pd(5-F-salo)2]]",14.82 ± 0.45%,13.61 ± 0.48%,63.30 ± 0.53%,100 µg/mL,259 µM,100 µg/mL,259 µM,100 µg/mL,259 µM,100 µg/mL,259 µM,9.27 (±0.48) × 10^4 M^−1,8.79 (±0.13) × 10^4 M^−1,6.05 (±0.27) × 10^4 M^−1,BSA drug site preference (BSA): drug site I
